Data reported in PubChem BioAssay AID248 (DTP/NCI, 2004).
Values joined by “and” are separate entries in the source; they are usually repeats but may differ in a detail not shown here. Equal entries are not always repeated. Inconclusive results and toxic doses are left out. Cut-off read from the data, not from the text of the source: active = T/C of 150% or more; inactive = T/C below 125%.

Test system: L1210 leukemia ip in BDF1 mice, survival T/C
Experiment: NCI In Vivo Anticancer Drug Screen. Data for tumor model L1210 Leukemia (intraperitoneal) in B6D2F1 (BDF1) mice
Conditions: endpoint: mean survival time, higher = longer survival
How it was run: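 Ratio derived from survival: compound-dosed mice over vehicle-dosed mice, all bearing a transplantable tumor.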

[1] = dose: 100.0 mg/kg/injection, schedule: Q01DX009 (ip), vehicle: saline with Tween-80
[2] = dose: 100.0 mg/kg/injection, schedule: Q04DX003 (ip), vehicle: saline with Tween-80
[3] = dose: 200.0 mg/kg/injection, schedule: Q01DX009 (ip), vehicle: saline with Tween-80
[4] = dose: 200.0 mg/kg/injection, schedule: Q04DX003 (ip), vehicle: saline with Tween-80
[5] = dose: 400.0 mg/kg/injection, schedule: Q01DX009 (ip), vehicle: saline with Tween-80
[6] = dose: 400.0 mg/kg/injection, schedule: Q04DX003 (ip), vehicle: saline with Tween-80
[7] = dose: 100.0 mg/kg/injection, schedule: Q01DX001 (ip), vehicle: Klucel (hydroxypropylcellulose) (HPC)
[8] = dose: 400.0 mg/kg/injection, schedule: Q01DX001 (ip), vehicle: Klucel (hydroxypropylcellulose) (HPC)
[9] = dose: 100.0 mg/kg/injection, schedule: Q01DX001 (ip), vehicle: saline
[10] = dose: 200.0 mg/kg/injection, schedule: Q01DX001 (ip), vehicle: saline
[11] = dose: 400.0 mg/kg/injection, schedule: Q01DX001 (ip), vehicle: saline
[12] = dose: 100.0 mg/kg/injection, schedule: Q04DX003 (ip), vehicle: Klucel (hydroxypropylcellulose) (HPC)
[13] = dose: 200.0 mg/kg/injection, schedule: Q04DX003 (ip), vehicle: Klucel (hydroxypropylcellulose) (HPC)
[14] = dose: 400.0 mg/kg/injection, schedule: Q04DX003 (ip), vehicle: Klucel (hydroxypropylcellulose) (HPC)
[15] = dose: 100.0 mg/kg/injection, schedule: Q01DX009 (ip), vehicle: Klucel (hydroxypropylcellulose) (HPC)
[16] = dose: 100.0 mg/kg/injection, schedule: Q04DX002 (ip), vehicle: Klucel (hydroxypropylcellulose) (HPC)
[17] = dose: 200.0 mg/kg/injection, schedule: Q01DX009 (ip), vehicle: Klucel (hydroxypropylcellulose) (HPC)
[18] = dose: 200.0 mg/kg/injection, schedule: Q04DX002 (ip), vehicle: Klucel (hydroxypropylcellulose) (HPC)
[19] = dose: 400.0 mg/kg/injection, schedule: Q01DX009 (ip), vehicle: Klucel (hydroxypropylcellulose) (HPC)
[20] = dose: 400.0 mg/kg/injection, schedule: Q04DX002 (ip), vehicle: Klucel (hydroxypropylcellulose) (HPC)
[21] = dose: 100.0 mg/kg/injection, schedule: Q01DX001 (ip), vehicle: carboxymethylcellulose (CMC)
[22] = dose: 200.0 mg/kg/injection, schedule: Q01DX001 (ip), vehicle: carboxymethylcellulose (CMC)
[23] = dose: 400.0 mg/kg/injection, schedule: Q01DX001 (ip), vehicle: carboxymethylcellulose (CMC)

Measured: T/C

Cc1ccc(S(=O)(=O)N/N=C/C(O)C(O)C(O)CO)cc1 (stereo not drawn)
inactive: [1] 94 % of control | [2] 94 % of control | [3] 103 % of control | [4] 94 % of control | [5] 96 % of control | [6] 96 % of control

CCOC(CCc1c(-c2ccc([N+](=O)[O-])cc2)nc(N)[nH]c1=O)OCC
inactive: [1] 95 % of control | [3] 111 % of control | [5] 95 % of control

Cc1cccc(CNC(=O)NCCCl)c1C
inactive: [7] 100 % of control | dose: 200.0 mg/kg/injection, schedule: Q01DX001 (ip), vehicle: Klucel (hydroxypropylcellulose) (HPC) 97 % of control | [8] 95 % of control

O=C(O)c1cc(=O)c2c(OCC(O)COc3cccc4oc(C(=O)O)cc(=O)c34)cccc2o1
inactive: [9] 100 % of control | [10] 102 % of control | [11] 94 % of control

Clc1ccccc1/C=N/Nc1c2ccccc2nc2ccccc12
inactive: [11] 87 % of control

C[N+](C)(C)Cc1ccco1
inactive: dose: 25.0 mg/kg/injection, schedule: Q01DX009 (ip), vehicle: saline 103 % of control | dose: 50.0 mg/kg/injection, schedule: Q01DX009 (ip), vehicle: saline 93 % of control | dose: 100.0 mg/kg/injection, schedule: Q01DX009 (ip), vehicle: saline 95 % of control and 90 % of control

CCC(C)COC(=O)c1ccccc1-c1ccccc1C(=O)OCC(C)CC (stereo not drawn)
inactive: dose: 100.0 mg/kg/injection, schedule: Q01DX001 (ip), vehicle: other 96 % of control | dose: 200.0 mg/kg/injection, schedule: Q01DX001 (ip), vehicle: other 98 % of control | dose: 400.0 mg/kg/injection, schedule: Q01DX001 (ip), vehicle: other 96 % of control

CCCCCCCCCCCCCCCCCCSCCOCCSCCCCCCCCCCCCCCCCCC
inactive: [7] 87 % of control | [8] 88 % of control

c1ccc(C2NC2(c2ccccc2)C2(c3ccccc3)SCCCS2)cc1 (stereo not drawn)
inactive: [12] 111 % of control | [13] 103 % of control | [14] 105 % of control

Cc1coc(NS(=O)(=O)c2ccc(N=Nc3c(N)nc(N)nc3N)cc2)c1C
inactive: [9] 97 % of control | [10] 94 % of control | [11] 97 % of control

Cc1ccccc1NC(=O)c1ccccc1
inactive: [2] 100 % of control | [4] 98 % of control | [6] 98 % of control

O=C(Nc1ccc(Cl)cc1Cl)P(=O)(O)c1ccccc1
inactive: [15] 92 % of control | [16] 101 % of control | [17] 103 % of control | [18] 90 % of control | [19] 92 % of control

O=C(NC1CCCCC1)c1ccc2ccccc2c1O
inactive: [4] 98 % of control | [6] 95 % of control

O=C1NC(c2ccccc2)C(c2ccccc2)N1 (stereo not drawn)
inactive: [9] 97 % of control | [10] 100 % of control | [11] 97 % of control

CC(C)(O)C(CO)c1ccccc1 (stereo not drawn)
inactive: [9] 96 % of control

O=C(c1ccccc1)N1C(c2ccccc2)C1(c1ccccc1)C1(c2ccccc2)SCCCS1 (stereo not drawn)
inactive: [15] 94 % of control | [12] 108 % of control | [17] 101 % of control | [13] 100 % of control | [19] 91 % of control | [14] 97 % of control

O=C(CCl)NC1C2CC3CC(C2)CC1C3 (stereo not drawn)
inactive: [16] 104 % of control | [18] 101 % of control | [20] 96 % of control

Cc1cccc(NC(=O)NCCN(C)Cc2ccccc2)c1
inactive: dose: 50.0 mg/kg/injection, schedule: Q01DX001 (ip), vehicle: carboxymethylcellulose (CMC) 101 % of control | [21] 98 % of control | [22] 101 % of control | [23] 104 % of control

CC(=O)Nc1ccc(S(=O)(=O)N(CCO)c2ccccc2)cc1
inactive: [12] 97 % of control | [13] 90 % of control | [14] 90 % of control

Cc1cc(NCCN(C(C)C)C(C)C)nc(Nc2nc3ccc(Cl)cc3[nH]2)n1
inactive: dose: 12.5 mg/kg/injection, schedule: Q01DX009 (ip), vehicle: saline with Tween-80 98 % of control | dose: 50.0 mg/kg/injection, schedule: Q01DX009 (ip), vehicle: saline with Tween-80 91 % of control

O=C(Nc1ccc(C(=O)O)cc1)Nc1cccc2ccccc12
inactive: [16] 113 % of control | [18] 93 % of control | [20] 97 % of control

O=c1c(O)c(-c2ccccc2)oc2ccccc12
inactive: [21] 90 % of control | [22] 97 % of control | [23] 97 % of control
